Data published in PMC9100651, “Focused Design of Novel Cyclic Peptides Endowed with GABARAP-Inhibiting Activity” (International Journal of Molecular Sciences, 2022).
Where “and” joins values, the source holds several entries; their conditions need not be identical. Identical values can stand only once. Like-named read-outs stand apart in the source and are kept apart here. Bridge positions count the residues as written; N and C are the ends. Peptide text beside a SMILES is read from it.

Legend:
[1] = target: T1, 6-His-tagged recombinant GABARAP (Homo sapiens, UniProt O95166); test: Microscale Thermophoresis (MST) binding affinity
T1 construct: purchased Abcam, Cambridge, UK
Protocol: The binding affinity (Kd) between the target protein (6-His-tagged recombinant GABARAP, produced by Abcam, Cambridge, UK) and peptide ligands (K1, WC8 and WC10, acquired by ProteoGenix, Schiltigheim, France) was measured by MST [22]. Briefly, histidine-tagged GABARAP was labeled by using a His-tag-specific dye for 30 min at room temperature, using either the conventional Monolith His-Tag Labeling Kit RED-tris-NTA (MO-L008) or the newer Monolith His-Tag Labeling Kit RED-tris-NTA 2nd Generation (MO-L018), both purchased from NanoTemper Technologies (GmbH, München, Germany). MST experiments were performed on both a Monolith NT.115 and a Monolith NT.115Pico instrument (NanoTemper Technologies, München, GmbH), in order to further increase the statistical significance of the attained results.
A fixed concentration of the labeled GABARAP protein was mixed with 16 1:1 serial dilutions of K1, WC8, and WC10. The protein and the peptide were incubated for 60–90 min at room temperature. The MST analysis was performed using standard capillaries, with the following experimental settings: an MST power of 40% (to create a temperature gradient) and a different excitation power in relation to the considered system and instrument (see Supplementary Materials for details, Table S1). Kd values were calculated from compound concentration-dependent changes of normalized fluorescence (Fnorm). In all the experiments, both the protein and the peptides were dissolved in PBS-T buffer (phosphate-buffered saline + 0.05% Tween™ 20; NanoTemper Technologies, GmbH) and 2.5% DMSO. The auto-fluorescence of each peptide was evaluated before proceeding to the determination of the Kd. At least two independent experiments were performed to calculate the Kd values. Data were processed using the NanoTemper MO.Affinity Analysis software (version 2.3), and the fitting was performed by using the Kd model. […]
Table S1. Summary table of the Microscale Thermophoresis (MST) experiments performed on both
Monolith NT.115 and Monolith NT.115Pico instruments. At least two independent experiments were
performed to compute the Kd value.
Protein Ligand MST Exc. Temp. [Ligand] Range SNR* Kd (µM)

[2] = target: T2, GABARAP (Homo sapiens, UniProt O95166); test: Surface Plasmon Resonance (SPR), steady-state affinity; format: binding
Protocol: SPR experiments were performed on a BIAcore 8K system (Cytiva, Marlborough, MA, USA). GABARAP was dissolved in 10 mM of sodium acetate (pH 5.5) and amine-coupled to a CM5 sensor chip (GE Healthcare, Chicago, IL, USA). The reference peptide K1 was dissolved in the running buffer (10 mM Hepes, pH 7.4, 150 mM NaCl) at concentrations of 10 μM to 156 nM. Gradient concentrations of K1 were injected at a flow rate of 30 μL/min, contact time 120 s at 25 °C. WC8 and WC10 were both dissolved in the running buffer (Sigma-Aldrich Dulbecco’s PBS, pH 7.4, 0.005% Tween™ and 5% DMSO; Sigma-Aldrich, St. Louis, MO, USA) at concentrations of 100 μM to 6.25 μM and 12.5 μM to 390 nM, respectively. Gradient concentrations of the peptides were then flowed over the chip with a flow rate of 30 μL/min, contact time 120 s at 25 °C. […] Two independent experiments for WC8 and WC10 were performed. The binding kinetics were evaluated using the BIAevaluation software package and applying the 1:1 steady-state affinity model.

[3] = system: PC-3 prostate cancer cells; test: MTS cell viability assay on PC-3 cells; settings: for cell viability: PC-3, highest tested concentration (10 µM), 96 h post-treatment, % of untreated control
Protocol: (§1) PC-3 prostate cancer cell line was purchased from the American Type Culture Collection (ATCC, Manassas, VA, USA), cultured at 37 °C and 5% CO2 in Ham’s F-12 K (Kaighn’s) basal medium (Gibco Laboratories, Grand Island, NY, USA), supplemented with 10% FBS (Gibco Laboratories) and 1% of 100 U/mL penicillin/streptomycin (Gibco Laboratories).
(§2) PC-3 and PNT2 cell lines were seeded at a density of 1 × 10^4 cells/well in 96-well plates and maintained under standard growth conditions.
(§3) After 96 h, cell viability was assessed by MTS assay according to the manufacturer’s protocol (Cell Titer 96 Aqueous One Solution Cell Proliferation Assay; Promega, Nacka, Sweden) using a 96-well-plate spectrophotometer (Varioskan Flash Multimode Reader; Thermo-Scientific, Waltham, MA, USA) set at λ = 490 nm. The absorbance value of untreated cells was set at 100% (control), and the viability of treated cells was expressed as a percentage of the control. Three independent experiments were performed in triplicate for each condition.

[4] = Solubility and stability in water and PBS buffer
Excerpt: Initially, we verified that the peptides were water soluble and stable in the buffer in which the recombinant GABARAP protein was solved.

[5] = system: PC-3 prostate cancer cells; settings: human, 96 h, 10 µM
Protocol: as §1, §2, §3

[6] = target: T2, GABARAP; design: method as in PMID 18638487; settings: SPR; cited from earlier work
[7] = target: T2, GABARAP; design: method as in PMID 29867141; settings: cited from earlier work
[8] = Kd (MST), Monolith NT.115Pico, GABARAP 10 nM, 25°C
[9] = Kd on GABARAP, consistent among MST and SPR

T2 sequence (O95166 whole entry): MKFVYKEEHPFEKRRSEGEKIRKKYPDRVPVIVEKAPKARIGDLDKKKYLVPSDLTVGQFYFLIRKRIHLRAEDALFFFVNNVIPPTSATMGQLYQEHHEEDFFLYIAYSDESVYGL
T1 sequence (O95166 whole entry): as above

| Compound | Kd ([1]; Kd (MST), Monolith NT.115, 25°C, PBS-T, 2.5% DMSO) [µM] | Kd [1, 8] [µM] | Kd [1, 9] [µM] | Kd on GABARAP ([1]; consistent among MST and SPR) | Kd [2] [µM] | cell viability [3] [%] | stability in water and PBS [4] | Kd ([1]; Monolith NT.115, 25°C, PBS-T, 2.5% DMSO, read-out: Kd (MST)) [µM] | Kd ([1]; Monolith NT.115Pico, GABARAP 10 nM, 25°C, read-out: Kd (MST)) [µM] | Kd ([1]; consistent among MST and SPR, read-out: Kd on GABARAP) [µM] | Kd ([2]; BIAcore 8K, steady-state analysis, 25 °C, read-out: Kd (SPR)) [µM] | cell viability [5] [%] | Kd [6] | Kd [7] [µM] | efficacy on PC-3 cells compared to Paclitaxel ([3]; PC-3, from 1 to 10 µM, 96 h) |
| --- | --- | --- | --- | --- | --- | --- | --- | --- | --- | --- | --- | --- | --- | --- | --- |
| CC[C@H](C)[C@@H]1NC(=O)[C@@H](NC(=O)[C@H](CCC(=O)O)NC(=O)[C@H](Cc2c[nH]c3ccccc23)NC(=O)CNC(=O)[C@@H](N)Cc2c[nH]c3ccccc23)CSSC[C@@H](C(=O)O)NC(=O)[C@H](CCC(=O)O)NC(=O)[C@H](CC(=O)O)NC(=O)[C@H](Cc2ccccc2)NC1=O [WC10, WGWECIFDEC] (H-WGWECIFDEC-OH; disulfide 5-10; N-terminus and C-terminus assumed) | 4.2 ± 1.8 | 3.8 ± 1.5 | ~4 | low micromolar range | 4.9 | 22.5 | excellent stability | – | – | – | – | – | – | – | – |
| CC(C)C[C@H](NC(=O)[C@H](Cc1c[nH]cn1)NC(=O)[C@H](CCC(=O)O)NC(=O)[C@H](Cc1c[nH]c2ccccc12)NC(=O)[C@@H](NC(=O)[C@H](Cc1ccc(O)cc1)NC(=O)[C@@H](NC(=O)[C@H](C)NC(=O)[C@@H](N)CC(=O)O)[C@@H](C)O)[C@@H](C)O)C(=O)N[C@@H](C)C(=O)N[C@@H](Cc1c[nH]c2ccccc12)C(=O)N1CCC[C@H]1C(=O)O [Peptide K1, DATYTWEHLAWP, reference compound] | – | – | – | – | – | – | – | 2.6 ± 0.4 | 3.5 ± 0.9 | ~3 | 3 | 27.16 | 0.39 µM and ~0.39 µM | – | – |
| EEWVIVSDEEIEEARQKA [AnkB-LIR] | – | – | – | – | – | – | – | – | – | – | – | – | – | 0.00027 | – |
| CC[C@H](C)[C@@H]1NC(=O)[C@@H](NC(=O)[C@H](CCC(=O)O)NC(=O)[C@@H](N)Cc2c[nH]c3ccccc23)CSSC[C@@H](C(=O)O)NC(=O)[C@H](CCC(=O)O)NC(=O)[C@H](CC(=O)O)NC(=O)[C@H](Cc2ccccc2)NC1=O [WC8, WECIFDEC] (H-WECIFDEC-OH; disulfide 3-8; N-terminus assumed) | – | 20.8 ± 2.7 | 22 | low micromolar range | 24.8 | 24.06 | excellent stability | – | – | – | – | – | – | – | high efficacy |
